Patent US11912707B2 (priority 2016, dated 2024)
Like-named read-outs stand apart in the source and are kept apart here.

What was measured:
[1] = molecular target: T1, human mu-opioid receptor (MOR) (Homo sapiens, UniProt P35372); assay: BRET assay measuring G protein activation, agonist mode, human MOR; type: cell-based
T1 construct: expressed in transfected cells; host or cells: HEK-293T
Description: (§1) Human MOR, KOR, or DOR cDNA was transfected alongside GαoB with RLuc8 inserted at position 91 (GαoB-RLuc8), Gβ1 (β1), and Gγ2 fused to the full-length mVenus at its N terminus (mVenus-γ2) (2.5 μg MOR/DOR/KOR, 0.125 μg GαoB-RLuc8, 6.25 μg β1; 6.25 μg mVenus-γ2) into HEK-293T cells (5×10^6 cells/plate) in 10-cm dishes using PEI (Polysciences Inc.; Warrington, PA) in a 1:1 ratio diluted in Opti-MEM (Life Technologies Corp.; Grand Island, NY) to assay for G protein activation as described previously.^2,3 Cells were maintained in Dulbecco's Modified Eagle Medium (high glucose #11965; Life Technologies) supplemented with 10% FBS (Premium Select, Atlanta Biologicals; Atlanta, GA) and 100 U/mL penicillin and 100 μg/mL streptomycin (#15140, Life Technologies). After 24 hours the media was changed, and the experiment was performed 24 hours later (48 hours after transfection).
(§2) Transfected cells were dissociated and resuspended in phosphate-buffered saline (PBS). Approximately 200,000 cells/well were added to a black-framed, white well 96-well plate (#60050; Perkin Elmer; Waltham, MA). The microplate was centrifuged and the cells were resuspended in phosphate-buffered saline (PBS). For agonist experiments, after 5 minutes, 5 μM of the luciferase substrate coelenterazine H was added to each well. After 5 minutes, ligands were added and the BRET signal was measured at 5 minutes on a PHERAstar FS plate reader. For antagonist competition experiments, cells were preincubated with the antagonist at varying concentrations for 30 minutes. Coelenterazine H (5 μM) was then added to each well for 5 minutes. […] The BRET signal was quantified by calculating the ratio of the light emitted by the energy acceptor, mVenus (510-540 nm), over the light emitted by the energy donor, RLuc8 (485 nm). This drug-induced BRET signal was normalized using the Emax of [D-Ala2, N-Me-Phe4, Gly5-ol]-enkephalin (DAMGO), U-50,488, or [D-Pen(2,5)]enkephalin (DPDPE) as the maximal response at MOR, KOR, and DOR respectively. Dose response curves were fit using a three-parameter logistic equation in GraphPad Prism 6.

[2] = molecular target: T2, human kappa-opioid receptor (KOR) (Homo sapiens, UniProt P41145); assay: BRET assay measuring G protein activation, antagonist competition vs U-50,488, human KOR; type: cell-based; conditions: for Inhibition of the agonist activity of U-50,488 at human KOR: concentration of agonist = 320 nM, FIG. 1
T2 construct: expressed in transfected cells; host or cells: HEK-293T
Description: as §1, §2

[3] = molecular target: T3, human delta-opioid receptor (DOR) (Homo sapiens, UniProt P41143); assay: BRET assay measuring G protein activation, antagonist competition vs DPDPE, human DOR; type: cell-based; conditions: for Extent of antagonism at Human DOR: competing agonist DPDPE (50 nM)
T3 construct: expressed in transfected cells; host or cells: HEK-293T
Description: as §1, §2

[4] = molecular target: T1, human mu-opioid receptor (MOR); conditions: Kruegel, A. C. et al. 2016; cited from earlier work
[5] = molecular target: T2, human kappa-opioid receptor (KOR); conditions: Kruegel, A. C. et al. 2016; cited from earlier work
[6] = molecular target: MOR (Homo sapiens, UniProt P35372); conditions: Kruegel, A. C. et al. 2016; cited from earlier work
[7] = Stability in human liver microsomes; type: in vitro ADME; conditions: pH 7.4, 2 μM test compound, 0.42 mg/mL microsomal protein, 37° C., NADPH, read-out: t1/2 in human liver microsomes
Description: Microsomal incubations were carried out in 96-well plates in 5 aliquots of 40 μL each (one for each time point). Liver microsomal incubation medium contained PBS (100 mM, pH 7.4), MgCl2 (3.3 mM), NADPH (3 mM), glucose-6 phosphate (5.3 mM), and glucose-6-phosphate dehydrogenase (0.67 units/ml) with 0.42 mg of liver microsomal protein per mL. Control incubations were performed replacing the NADPH-cofactor system with PBS. Test compound (2 μM, final solvent concentration 1.6%) was incubated with microsomes at 37° C., shaking at 100 rpm. Incubations were performed in duplicates. Five time points over 40 minutes were analyzed. The reactions were stopped by adding 12 volumes of 90% acetonitrile-water to incubation aliquots, followed by protein sedimentation by centrifuging at 5500 rpm for 3 minutes. Supernatants were analyzed for remaining test compound using an HPLC system coupled with a tandem mass spectrometer.

[8] = test system: MOR; conditions: Takayama 2002; Matsumoto 2004; cited from earlier work
[9] = inhibition of reference agonist U-50,488 at 5x its EC50 (320 nM), read-out: Antagonist IC50, Human KOR
[10] = read-out: Antagonist IC50, Human DOR

Row | SMILES | Emax ([1]; normalized to Emax of DAMGO) | IC50 [2] | Inhibition of the agonist activity of U-50,488 at human KOR [2] | IC50 [3] | Type of activity at MOR [4] | Type of activity at KOR [5] | beta-arrestin recruitment at MOR [6] | half-life at 2 μM [7] | further results
1 | CC[C@@H]1CN2CC[C@]3(Nc4cccc(OC)c4C3=O)[C@@H]2C[C@@H]1/C(=C\OC)C(=O)OC [mitragynine pseudoindoxyl, methyl (E)-2-((2S,6′S,7′S,8a′S)-6′-ethyl-4-methoxy-3-oxo-2′,3′,6′,7′,8′,8a′-hexahydro-5′H-spiro[indoline-2,1′-indolizin]-7′-yl)-3-methoxyacrylate] | 52% | 4.8 µM | fully inhibit | 0.609 µM | partial MOR agonists | competitive kappa-opioid receptor (KOR) antagonists | failing to recruit beta-arrestin | – | EC50 [1]: 0.0145 µM
2 | CC[C@@H]1CN2CC[C@@]3(O)C(=Nc4cccc(OC)c43)[C@@H]2C[C@@H]1/C(=C\OC)C(=O)OC [7-hydroxymitragynine, 7-Hydroxymitragynine] | 60% | 7.9 µM | fully inhibit | 15.6 µM | partial MOR agonists | competitive kappa-opioid receptor (KOR) antagonists | failing to recruit beta-arrestin | 4.38 h | Ki [2]: 0.49 µM; binding affinities for the MOR [8]: nanomolar
3 | CC[C@@H]1CN2CCc3c([nH]c4cccc(OC)c34)[C@@H]2C[C@@H]1/C(=C/OC)C(=O)OC [(Z)-mitragynine, methyl (Z)-2-((2S,3S,12bS)-3-ethyl-8-methoxy-1,2,3,4,6,7,12,12b-octahydroindolo[2,3-a]quinolizin-2-yl)-3-methoxyacrylate] | – | – | – | – | – | – | – | – | IC50 [2, 9]: 42 µM; Extent of antagonism at Human DOR [3]: partial; IC50 [3, 10]: > 100 µM
4 | [2H]C([2H])([2H])O/C=C(/C(=O)OC([2H])([2H])[2H])[C@H]1C[C@H]2c3[nH]c4cccc(OC([2H])([2H])[2H])c4c3CCN2C[C@H]1CC [Compound 18, Methyl-d3 (E)-2-((2S,3S,12bS)-3-ethyl-8-(methoxy-d3)-1,2,3,4,6,7,12,12b-octahydroindolo[2,3-a]quinolizin-2-yl)-3-(methoxy-d3)acrylate] | – | – | – | – | – | – | – | 0.585 h | –
5 | CC[C@@H]1CN2CC[C@@]3(O)C(=Nc4cccc(OC)c43)[C@@H]2C[C@@H]1/C(=C/OC)C(=O)OC [(Z)-7-hydroxymitragynine, methyl (Z)-2-((2S,3S,7aS,12bS)-3-ethyl-7a-hydroxy-8-methoxy-1,2,3,4,6,7,7a,12b-octahydroindolo[2,3-a]quinolizin-2-yl)-3-methoxyacrylate] | 64% | > 50 µM | – | > 50 µM | – | – | – | – | –
6 | CC[C@@H]1CN2CCc3c([nH]c4cccc(OC)c34)[C@@H]2C[C@@H]1/C(=C\OC)C(=O)OC [mitragynine, Mitragynine] | – | – | fully inhibit | – | partial MOR agonists | competitive kappa-opioid receptor (KOR) antagonists | failing to recruit beta-arrestin | 0.447 h | Emax, Human MOR ([1]; normalized to Emax of DAMGO): 34%; Ki ([2]; Schild analysis, read-out: Schild pA2 (an estimate of Ki), Human KOR (converted)): 1.4 µM; IC50 [2, 9]: 8.5 µM; Extent of antagonism at Human DOR [3]: partial; IC50 [3, 10]: > 50 µM; binding affinities for the MOR [8]: nanomolar
7 | [2H]CO/C=C(/C(=O)OC([2H])([2H])[2H])[C@H]1C[C@H]2C3=Nc4cccc(OC([2H])([2H])[2H])c4[C@@]3(O)CCN2C[C@H]1CC [Compound 19, Methyl-d3 (E)-2-((2S,3S,7aS,12bS)-3-ethyl-7a-hydroxy-8-(methoxy-d3)-1,2,3,4,6,7,7a,12b-octahydroindolo[2,3-a]quinolizin-2-yl)-3-(methoxy-d)acrylate] | – | – | – | – | – | – | – | 6.57 h | –
